Source: US8609836B2, “4-aryl-2-anilino-pyrimidines” (Janssen Pharmaceutica NV, priority 2008, dated 2013)

Assays:
A2780 = assay: Cellular proliferation assay (Alamar blue), A2780; format: cell-based; conditions: Homo sapiens, 10% FCS, 72 hours with compound, Alamar blue 24 h, read-out: A2780 (cellular proliferation assay, Table 4) (converted)
Description: (§1) […] functional properties of these compounds were tested in cellular proliferation assays on a panel of different cell lines in the presence of 10% FCS serum (37° C. and 5% (v/v) CO2). In a first step these cells were seeded and incubated for 24 hours in the absence of compound. In the second step the cells were incubated for 72 hours with the compounds to be tested for 72 hours. The viable cell number was finally assessed in a standard Alamar blue cell viability assay.
(§2) The viable cell number was assessed by incubation for either 4 h (HCT-116, H1299) 6 h (U87-MG) or 24 h (A2780, MDA-MB-231) with Alamar blue (Resazurin 9 μg/ml, K-Ferrocyanide 90 μM, K-Ferricyanide 90 μM) and the converted fluorescent product was quantified on a fluorescent plate reader (544 nm/590 nm). Effect of the compounds is calculated as of on control cells.

CDK1/CyclinB (h) = CDK1/CyclinB (h) (Homo sapiens, UniProt P06493); assay: CDK1/CyclinB human kinase inhibition, Invitrogen's FRET assay (Z'lyte); format: biochemical; conditions: read-out: CDK1 pIC50 (converted)
CDK1/CyclinB (h), sequence (P06493 whole entry): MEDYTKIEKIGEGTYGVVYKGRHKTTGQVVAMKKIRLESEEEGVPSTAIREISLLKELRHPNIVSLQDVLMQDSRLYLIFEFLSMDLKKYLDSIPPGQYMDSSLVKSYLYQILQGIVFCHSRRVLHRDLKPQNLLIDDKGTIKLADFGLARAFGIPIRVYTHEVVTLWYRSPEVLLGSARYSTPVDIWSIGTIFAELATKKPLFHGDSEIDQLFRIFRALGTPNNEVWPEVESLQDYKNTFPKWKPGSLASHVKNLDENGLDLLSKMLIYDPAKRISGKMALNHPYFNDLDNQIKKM
CDK1/CyclinB (h), sequence (P14635 whole entry partner): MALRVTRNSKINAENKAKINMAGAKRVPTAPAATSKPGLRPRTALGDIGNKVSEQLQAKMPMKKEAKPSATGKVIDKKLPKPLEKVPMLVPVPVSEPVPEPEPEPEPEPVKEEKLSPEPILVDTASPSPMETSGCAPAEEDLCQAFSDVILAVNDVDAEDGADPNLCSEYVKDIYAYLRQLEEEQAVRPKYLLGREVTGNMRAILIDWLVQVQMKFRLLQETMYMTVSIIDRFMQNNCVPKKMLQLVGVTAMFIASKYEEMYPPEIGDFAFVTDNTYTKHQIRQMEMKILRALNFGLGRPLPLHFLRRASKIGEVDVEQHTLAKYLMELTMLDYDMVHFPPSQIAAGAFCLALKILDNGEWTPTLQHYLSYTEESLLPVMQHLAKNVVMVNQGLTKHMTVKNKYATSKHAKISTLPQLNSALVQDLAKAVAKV
Description: (§3) The in vitro inhibition of a panel of kinases was assessed using either the scintillation proximity assay (SPA) as described by Cook, N. D. et al., Advances in Experimental Medicine and Biology (1991), 36; p. 525-528.
(§4) All kinases are pre-diluted to a 10× working concentration prior to addition into the assay. The composition of the dilution buffer for each kinase is detailed below.
In a final reaction volume of 10 μl, CDK1/CyclinB (h) (0.2 μg/ml) is incubated with 50 mM Hepes pH 7.5, 10 mM MgCl2, 1 mM EGTA, 0.01% Brij-35, 2 μM Z'lyte Ser/Thr peptide 12 and 10 μM ATP (Invitrogen's FRET assay). After incubation of 60 minutes at room temperature, the reaction is stopped by addition of 5 μL development reagent containing protease mix. After 60 minutes room temperature the development reaction is stopped by adding 5 μl stop solution. The plate is then read in fluorescence plate reader with excitation: 390 nm and dual emission: 460 and 538 nm. Emission ratio is determined to the formula=Emission signal intensity at 460 nm/Emission signal intensity at 538 nm.

U87-MG = assay: Cellular proliferation assay (Alamar blue), U87-MG; format: cell-based; conditions: Homo sapiens, U-87 MG; 10% FCS; 72 hours with compound; Alamar blue 6 h; read-out: U87-MG (cellular proliferation assay, Table 4) (converted)
Description: as §1, §2

PLK3 (h) = PLK3 (h) (Homo sapiens, UniProt Q9H4B4); assay: PLK3 human kinase inhibition, SPA; format: biochemical; conditions: read-out: PLK3 pIC50 (converted)
PLK3 (h), sequence (Q9H4B4 whole entry): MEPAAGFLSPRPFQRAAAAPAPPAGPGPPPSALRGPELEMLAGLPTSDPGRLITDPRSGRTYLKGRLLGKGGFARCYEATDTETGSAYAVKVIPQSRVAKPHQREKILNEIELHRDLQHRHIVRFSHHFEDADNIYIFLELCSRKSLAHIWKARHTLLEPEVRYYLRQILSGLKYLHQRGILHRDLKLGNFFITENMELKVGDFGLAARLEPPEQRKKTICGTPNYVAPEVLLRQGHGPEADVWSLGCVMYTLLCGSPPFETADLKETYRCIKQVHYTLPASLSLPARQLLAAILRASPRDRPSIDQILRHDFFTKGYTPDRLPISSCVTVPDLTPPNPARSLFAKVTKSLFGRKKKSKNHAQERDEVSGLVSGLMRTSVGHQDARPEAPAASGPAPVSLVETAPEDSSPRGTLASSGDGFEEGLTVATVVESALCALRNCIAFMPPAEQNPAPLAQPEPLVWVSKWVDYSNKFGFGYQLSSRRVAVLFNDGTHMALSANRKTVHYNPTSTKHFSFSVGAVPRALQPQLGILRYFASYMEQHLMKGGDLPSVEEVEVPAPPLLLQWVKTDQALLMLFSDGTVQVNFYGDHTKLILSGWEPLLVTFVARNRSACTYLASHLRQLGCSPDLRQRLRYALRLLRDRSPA
Description: as §3
(§5) In the SPA technology the activity of the kinase of interest is measured using an appropriate biotinylated substrate that is incubated with the aforementioned kinase protein in the presence of (^33P) radiolabeled ATP. (^33P) Phosphorylation of the substrate is subsequently measured through binding of the phosphorylated substrate to streptavidine coated beads that are based on the scintillant poly(vinyl toluene) (PVT-Beads). The scintillation intensity is detected by imaging on Leadseeker.
as §4
(§6) In a final reaction volume of 30 μl, PLK3 (h) (30 μg/ml) is incubated with 50 mM Hepes pH 8.0, 2 mM MnCl2, 1 mM DTT, 2 μM of peptide Biotin-Tds linker-[…], 0.1 μM ATP and 2 nM [γ-^33P-ATP] (6.0 μCi/ml). After incubation of 20 minutes at room temperature, the reaction is stopped by addition of 40 μL of stop solution containing 8.7 mM EDTA, BSA 0.17%, 0.17% Triton X-100, 25 mg/ml SPA beads (GE-healthcare). The plate is centrifuged and read for Scintillation imaging on Leadseeker.

PLK4 (h) = PLK4 (h) (Homo sapiens, UniProt O00444); assay: PLK-4 human kinase inhibition, scintillation proximity assay (SPA); format: biochemical; conditions: read-out: PLK4 pIC50 (converted)
PLK4 (h), sequence (O00444 whole entry): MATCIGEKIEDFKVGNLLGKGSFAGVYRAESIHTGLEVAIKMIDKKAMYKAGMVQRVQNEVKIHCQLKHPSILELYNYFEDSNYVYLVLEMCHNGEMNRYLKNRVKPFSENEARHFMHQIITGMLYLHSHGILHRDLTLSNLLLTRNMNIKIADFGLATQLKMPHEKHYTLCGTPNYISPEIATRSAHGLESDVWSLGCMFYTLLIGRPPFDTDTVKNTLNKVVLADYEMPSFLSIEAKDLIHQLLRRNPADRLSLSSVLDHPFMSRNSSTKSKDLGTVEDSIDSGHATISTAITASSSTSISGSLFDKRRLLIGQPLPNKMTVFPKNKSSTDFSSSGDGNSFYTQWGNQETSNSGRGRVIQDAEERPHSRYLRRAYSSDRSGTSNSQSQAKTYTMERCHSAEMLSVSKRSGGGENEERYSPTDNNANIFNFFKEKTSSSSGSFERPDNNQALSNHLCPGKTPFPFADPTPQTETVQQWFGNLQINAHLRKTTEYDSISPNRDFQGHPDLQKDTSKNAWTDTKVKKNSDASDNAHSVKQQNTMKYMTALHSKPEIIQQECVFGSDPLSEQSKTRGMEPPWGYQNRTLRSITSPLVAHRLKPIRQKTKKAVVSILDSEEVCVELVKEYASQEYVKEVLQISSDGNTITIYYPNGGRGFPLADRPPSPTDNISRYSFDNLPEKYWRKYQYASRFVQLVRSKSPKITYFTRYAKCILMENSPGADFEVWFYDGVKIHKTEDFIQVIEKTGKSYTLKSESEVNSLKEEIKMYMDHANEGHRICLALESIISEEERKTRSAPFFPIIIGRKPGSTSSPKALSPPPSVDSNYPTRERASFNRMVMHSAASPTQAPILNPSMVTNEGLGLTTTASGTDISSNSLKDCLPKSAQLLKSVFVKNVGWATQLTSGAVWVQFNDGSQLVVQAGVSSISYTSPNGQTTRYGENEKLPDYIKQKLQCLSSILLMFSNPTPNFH
Description: as §5, §4
(6.0 μCi/ml). After incubation of 60 minutes at room temperature, the reaction is stopped by addition of 40 μL of stop solution containing 8.7 mM EDTA, BSA 0.17%, 0.17% Triton X-100, 1.7 mg/ml SPA beads (GE-healthcare). The plate is centrifuged and read for Scintillation imaging on Leadseeker.

MDA-MB-231 = assay: Cellular proliferation assay (Alamar blue), MDA-MB-231; format: cell-based; conditions: Homo sapiens, 10% FCS, 72 hours with compound, Alamar blue 24 h, read-out: MDA/MB231 (cellular proliferation assay, Table 4) (converted)
Description: as §1, §2

PLK1 T210D (h) = PLK1 T210D (h) (Homo sapiens, UniProt P53350, T210D); assay: PLK1 human kinase inhibition, SPA; format: biochemical; conditions: read-out: PLK1 pIC50 (converted)
PLK1 T210D (h), sequence (P53350 whole entry T210D): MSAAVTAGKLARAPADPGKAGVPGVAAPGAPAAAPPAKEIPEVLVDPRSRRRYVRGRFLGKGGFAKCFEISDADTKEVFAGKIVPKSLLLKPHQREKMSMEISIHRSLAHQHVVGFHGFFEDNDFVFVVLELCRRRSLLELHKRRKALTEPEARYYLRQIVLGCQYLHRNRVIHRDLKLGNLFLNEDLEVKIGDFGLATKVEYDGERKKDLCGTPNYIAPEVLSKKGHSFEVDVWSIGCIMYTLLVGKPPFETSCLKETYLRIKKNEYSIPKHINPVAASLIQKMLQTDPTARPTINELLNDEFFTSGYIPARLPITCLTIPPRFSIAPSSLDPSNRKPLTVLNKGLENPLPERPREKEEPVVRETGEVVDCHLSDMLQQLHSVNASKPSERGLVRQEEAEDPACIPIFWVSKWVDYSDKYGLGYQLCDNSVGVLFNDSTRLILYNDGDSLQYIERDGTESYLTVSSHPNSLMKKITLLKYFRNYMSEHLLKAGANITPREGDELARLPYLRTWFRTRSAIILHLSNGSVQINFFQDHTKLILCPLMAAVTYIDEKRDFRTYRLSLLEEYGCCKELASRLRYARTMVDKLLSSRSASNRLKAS
Description: as §3, §5, §4
as §6, with “PLK1 T210D” for “PLK3”, “(0.125 ng/ml)” for “(30 μg/ml)”, “40” for “20”

PLK2 (h) = PLK2 (h) (Homo sapiens, UniProt Q9NYY3); assay: PLK2 human kinase inhibition, SPA; format: biochemical; conditions: read-out: PLK2 pIC50 (converted)
PLK2 (h), sequence (Q9NYY3 whole entry): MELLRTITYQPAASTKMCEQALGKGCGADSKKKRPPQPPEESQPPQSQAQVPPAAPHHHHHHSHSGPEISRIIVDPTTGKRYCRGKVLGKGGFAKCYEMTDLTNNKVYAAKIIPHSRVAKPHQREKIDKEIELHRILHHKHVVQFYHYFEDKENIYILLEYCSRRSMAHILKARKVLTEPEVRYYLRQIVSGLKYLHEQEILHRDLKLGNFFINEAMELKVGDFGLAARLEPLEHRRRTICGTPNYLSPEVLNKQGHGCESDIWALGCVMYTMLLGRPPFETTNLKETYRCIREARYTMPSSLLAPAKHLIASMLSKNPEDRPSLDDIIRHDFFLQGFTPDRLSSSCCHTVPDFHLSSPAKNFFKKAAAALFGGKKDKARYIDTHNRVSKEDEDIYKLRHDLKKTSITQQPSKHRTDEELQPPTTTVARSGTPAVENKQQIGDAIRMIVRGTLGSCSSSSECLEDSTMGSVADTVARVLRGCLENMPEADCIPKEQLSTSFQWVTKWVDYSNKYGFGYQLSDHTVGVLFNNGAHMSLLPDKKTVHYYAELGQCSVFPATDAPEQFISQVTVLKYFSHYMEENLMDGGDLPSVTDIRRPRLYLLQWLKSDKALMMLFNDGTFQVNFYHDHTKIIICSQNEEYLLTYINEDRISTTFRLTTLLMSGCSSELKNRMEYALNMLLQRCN
Description: as §3, §5, §4
as §6, with “PLK2” for “PLK3”

AuroraB (h) = AuroraB (h) (Homo sapiens, UniProt Q96GD4); assay: Aurora-B human kinase inhibition, SPA; format: biochemical; conditions: read-out: AuroraB pIC50 (converted)
AuroraB (h), sequence (Q96GD4 whole entry): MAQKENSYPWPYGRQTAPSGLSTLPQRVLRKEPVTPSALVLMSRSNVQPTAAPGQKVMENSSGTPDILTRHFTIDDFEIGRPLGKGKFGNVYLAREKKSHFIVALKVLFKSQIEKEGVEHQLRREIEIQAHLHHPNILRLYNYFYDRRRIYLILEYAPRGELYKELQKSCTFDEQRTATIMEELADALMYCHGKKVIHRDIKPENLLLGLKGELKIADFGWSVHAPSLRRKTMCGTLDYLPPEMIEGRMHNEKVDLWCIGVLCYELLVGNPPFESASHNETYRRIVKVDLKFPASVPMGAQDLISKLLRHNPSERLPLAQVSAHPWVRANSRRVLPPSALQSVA
Description: as §3, §5, §4
In a final reaction volume of 30 μl, AuroraB (h) (0.5 μg/ml) is incubated with 60 mM Hepes pH 7.5, 3 mM MgCl2, 3 mM MnCl2, 3 μM Na3VO4, 0.05 mg/ml PEG, 2 mM DTT, 3 μM Biotin-[…]-OH, 0.5 μM ATP and 2.2 nM [γ-^33P-ATP] (6.8 μCi/ml). After incubation of 60 minutes at room temperature, the reaction is stopped by addition of 40 μL of stop solution containing 8.7 mM EDTA, BSA 0.17%, 0.17% Triton X-100, 5 mg/ml SPA beads (GE-healthcare). The plate is centrifuged and read for Scintillation imaging on Leadseeker.

GSK3β (h) = GSK3β (h) (Homo sapiens, UniProt P49841); assay: GSK-3β human kinase inhibition, SPA; format: biochemical; conditions: read-out: GSK3b pIC50 (converted)
GSK3β (h), sequence (P49841 whole entry): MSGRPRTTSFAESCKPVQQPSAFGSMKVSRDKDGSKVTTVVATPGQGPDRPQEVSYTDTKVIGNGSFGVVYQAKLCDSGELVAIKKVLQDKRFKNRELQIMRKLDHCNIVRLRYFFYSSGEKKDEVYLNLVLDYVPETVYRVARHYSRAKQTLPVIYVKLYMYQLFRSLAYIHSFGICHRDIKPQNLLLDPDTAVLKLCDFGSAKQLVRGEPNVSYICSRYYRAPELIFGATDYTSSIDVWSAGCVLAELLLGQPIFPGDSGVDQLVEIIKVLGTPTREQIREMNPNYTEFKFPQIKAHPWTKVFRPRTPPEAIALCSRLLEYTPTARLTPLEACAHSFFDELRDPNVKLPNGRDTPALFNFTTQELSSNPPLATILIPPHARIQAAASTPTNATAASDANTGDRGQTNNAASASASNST
Description: as §3, §5, §4
In a final reaction volume of 30 μl, GSK3β (h) (1 μg/ml) is incubated with 25 mM Tris pH 7.4, 10 mM MgCl2, 1 mM DTT, 1 μM peptide Biotin-[…]-OH, 1 μM ATP and 2 nM [γ-^33P-ATP] (6.0 μCi/ml). After incubation of 60 minutes at room temperature, the reaction is stopped by addition of 40 μL of stop solution containing 8.7 mM EDTA, BSA 0.17%, 0.17% Triton X-100, 6.25 mg/ml SPA beads (GE-healthcare). The plate is centrifuged and read for Scintillation imaging on Leadseeker.

HCT-116 = assay: Cellular proliferation assay (Alamar blue), HCT-116; format: cell-based; conditions: Homo sapiens, 10% FCS, 72 hours with compound, Alamar blue 4 h
Description: as §1, §2

H1299 = assay: Cellular proliferation assay (Alamar blue), H1299; format: cell-based; conditions: Homo sapiens, NCI-H1299; 10% FCS; 72 hours with compound; Alamar blue 4 h
Description: as §1, §2

Compound | IC50 (A2780) | IC50 (CDK1/CyclinB (h)) | IC50 (U87-MG) | IC50 (PLK3 (h)) | IC50 (PLK4 (h)) | IC50 (MDA-MB-231) | IC50 (PLK1 T210D (h)) | IC50 (PLK2 (h)) | IC50 (AuroraB (h)) | IC50 (GSK3β (h)) | IC50 (HCT-116) | IC50 (H1299)
CC(C)Nc1cc2cc(c1)Nc1nccc(n1)-c1ccc(cc1)CN(C)CCCNC(=O)[C@H](CO)NC2 [Compound 111] | > 10 µM | > 10 µM | > 10 µM | > 10 µM | 0.813 µM | > 10 µM | > 10 µM | > 3.02 µM | > 10 µM | > 10 µM | > 10 µM | > 10 µM
O=C1NCCNCc2ccc(cc2)-c2ccnc(n2)Nc2ccc(N3CCOCC3)c(c2)CN[C@H]1Cc1ccccc1 [Compound 117] | 6.03 µM | > 10 µM | 3.89 µM | > 10 µM | 2.24 µM | > 10 µM | > 10 µM | > 10 µM | > 10 µM | 1 µM | 4.27 µM | 7.59 µM
COc1ccc2cc1CN(C)CCNC(=O)[C@H](CO)NCc1cccc(c1)Nc1nccc-2n1 [Compound 120] | > 10 µM | > 10 µM | > 10 µM | > 10 µM | 7.08 µM | > 10 µM | > 10 µM | > 10 µM | > 10 µM | > 10 µM | > 10 µM | > 10 µM
CN1CCNC(=O)CN2CCN(CC2)Cc2cc(Br)cc(c2)Nc2nccc(n2)-c2ccc(cc2)C1 [Compound 129] | > 10 µM | 4.17 µM | 4.9 µM | > 3.02 µM | 1.12 µM | > 10 µM | > 10 µM | > 10 µM | > 10 µM | 0.49 µM | 8.51 µM | > 10 µM
O=C1CN2CCN(CC2)Cc2cc(ccc2N2CCOCC2)Nc2nccc(n2)-c2ccc(cc2)CNCCCN1 [Compound 139] | 7.41 µM | > 10 µM | 2.09 µM | > 10 µM | 2.19 µM | > 10 µM | > 10 µM | > 10 µM | > 10 µM | > 10 µM | 7.41 µM | > 10 µM

Other lines, results leading:

IC50 (A2780) | IC50 (CDK1/CyclinB (h)) | IC50 (U87-MG) | IC50 (PLK3 (h)) | IC50 (PLK4 (h)) | IC50 (MDA-MB-231) | IC50 (PLK1 T210D (h)) | IC50 (PLK2 (h)) | IC50 (AuroraB (h)) | IC50 (GSK3β (h)) | IC50 (HCT-116) | IC50 (H1299) | Compound
> 10 µM | > 10 µM | > 10 µM | > 10 µM | 0.912 µM | > 10 µM | > 10 µM | > 10 µM | 3.31 µM | 3.89 µM | > 10 µM | > 10 µM | COc1ccc2cc1CN(C)CCCNC(=O)[C@H](CO)NCc1cc(Br)cc(c1)Nc1nccc-2n1 [Compound 112]
> 10 µM | > 10 µM | 5.75 µM | > 10 µM | 1.48 µM | > 10 µM | > 10 µM | > 10 µM | > 10 µM | > 10 µM | 4.07 µM | > 10 µM | COc1ccc2cc1CN(C)CCNC(=O)[C@H](C)NCc1cc(ccc1N1CCOCC1)Nc1nccc-2n1 [Compound 116]
> 10 µM | 1.91 µM | > 10 µM | > 10 µM | 8.13 µM | > 10 µM | > 10 µM | > 10 µM | > 10 µM | 2.75 µM | > 10 µM | > 10 µM | O=C1NCc2cccc(c2)-c2ccnc(n2)Nc2cc(ccc2Cl)CN2CCC1CC2 [Compound 123]
> 10 µM | 1.38 µM | 7.94 µM | > 10 µM | 1.02 µM | > 10 µM | > 10 µM | > 10 µM | > 10 µM | 1.95 µM | > 10 µM | > 10 µM | CC(C)Nc1cc2cc(c1)Nc1nccc(n1)-c1ccc(cc1)CN(C)CCNC(=O)CN1CCN(CC1)C2 [Compound 128]
2.34 µM | > 10 µM | 1.7 µM | > 10 µM | 1.82 µM | > 10 µM | > 10 µM | > 10 µM | > 10 µM | 6.76 µM | 0.355 µM | 3.02 µM | CN1CCCNC(=O)CN2CCN(CC2)Cc2cc(cc(N3CCOCC3)c2)Nc2nccc(n2)-c2ccc(cc2)C1 [Compound 136]
> 10 µM | 5.89 µM | > 10 µM | > 10 µM | 0.832 µM | > 10 µM | > 10 µM | > 10 µM | > 10 µM | 0.1 µM | 4.27 µM | > 10 µM | COc1cc2cc(c1OC)CNC(=O)[C@@H]1CCCN1Cc1cccc(c1)-c1ccnc(n1)N2 [Compound 150]
